PMC12627933, “A First-In-Human Study of the SUMOylation Inhibitor Subasumstat in Patients with Advanced/Metastatic Solid Tumors or Relapsed/Refractory Hematologic Malignancies” (Cancer Research Communications, 2025)

Assay: Safety: treatment-emergent adverse events (NCI CTCAE v5.0; CRS per ASTCT), phase I/II study NCT03648372
Assay type: in vivo
Method: This study comprised two parts: a phase I dose escalation and a phase II dose expansion (Fig. 1). In the dose-escalation phase, patients were enrolled to receive subasumstat intravenously as a 1-hour (±10 minutes) infusion on days 1, 4, 8, and 11 of a 21-day cycle (biweekly schedule). […] Dose escalation was based on cohort with an adaptive design using Bayesian logistic regression modeling with overdose control. The starting dose of subasumstat was based on Good Laboratory Practice animal toxicity studies and supported by the estimation of a minimum anticipated biologically effective level. A detailed description of dose-limiting toxicities (DLT) is presented in the Supplementary Methods.
The phase II dose-expansion portion enrolled patients to receive the recommended phase II dose (RP2D) determined in phase I, with each cohort assessed separately using an adaptive two-stage design for a single proportion (see Supplementary Methods). For stage 1, each cohort was analyzed when a prespecified number of patients were enrolled and had the potential to have at least one posttreatment scan [i.e., after the first disease assessment, 2 months from cycle 1 day 1 (C1D1)]. If the prespecified minimal response rate was not achieved in the first stage for a given cohort, that cohort would be closed to enrollment. […] The final analysis of the primary endpoints for each cohort would take place when all ongoing patients had the opportunity to complete the 6-month disease assessment. Across both phases, patients received subasumstat for up to 1 year or until confirmed disease progression, unacceptable toxicity, if any withdrawal criterion from the study was met, or if discontinuation of subasumstat occurred.
The occurrence of DLTs was assessed during cycle 1 (DLTs are described in the Supplementary Methods). Treatment-emergent adverse events (TEAE) were graded according to NCI Common Terminology Criteria for Adverse Events version 5.0, except for cytokine release syndrome (CRS), which was graded according to the American Society for Transplantation and Cellular Therapy Consensus Grading for CRS ([20]).
It was anticipated that approximately 70 DLT-evaluable patients would be enrolled for dose escalation. The safety analysis set included all patients who received at least one dose, even if incomplete, of subasumstat. […] The overall response rate (ORR) was defined as the proportion of patients who achieved complete response and partial response (PR) during the study. The disease control rate (DCR) was defined as the proportion of patients who achieved […] as per RECIST v1.1 for solid tumors or Lugano classification for lymphomas. […] Progression-free survival was summarized descriptively using the Kaplan–Meier method.

Cc1sc(C(=O)c2cncnc2N[C@@H]2C[C@H](COS(N)(=O)=O)[C@@H](O)C2)cc1[C@@H]1NCCc2ccc(Cl)cc21 [subasumstat]
TEAE: Dyspnea (Phase I (n = 84)): 22 (26.2) n (%)
TEAE: Fatigue (Phase I (n = 84)): 42 (50.0) n (%)
TEAE: Headache (Phase I (n = 84)): 30 (35.7) n (%)
TEAE: Hypophosphatemia (Phase I (n = 84)): 11 (13.1) n (%)
TEAE: Insomnia (Phase I (n = 84)): 11 (13.1) n (%)
TEAE: Nausea (Phase I (n = 84)): 41 (48.8) n (%)
TEAE: Peripheral edema (Phase I (n = 84)): 15 (17.9) n (%)
TEAE: Pleural effusion (Phase I (n = 84)): 9 (10.7) n (%)
TEAE: Pyrexia (Phase I (n = 84)): 28 (33.3) n (%)
TEAE: Stomatitis (Phase I (n = 84)): 8 (9.5) n (%)
TEAE: Vomiting (Phase I (n = 84)): 27 (32.1) n (%)
TEAEs (Phase I (n = 84)): 81 (96.4) n (%)
TEAEs leading to discontinuation (Phase I (n = 84)): 8 (9.5) n (%)
TEAEs leading to discontinuation related to subasumstat (Phase I (n = 84)): 3 (3.6) n (%)
TEAEs related to subasumstat (Phase I (n = 84)): 65 (77.4) n (%)
AESI (adverse event of special interest) (Phase II (n = 25)): 3 (12.0) n (%)
AESI related to subasumstat (Phase II (n = 25)): 3 (12.0) n (%)
AESI: CRS (Phase II (n = 25)): 3 (12.0) n (%)
Grade ≥3 TEAE: Abdominal pain (Phase II (n = 25)): 2 (8.0) n (%)
Grade ≥3 TEAE: Acute kidney injury (Phase II (n = 25)): 2 (8.0) n (%)
Grade ≥3 TEAE: Anemia (Phase II (n = 25)): 5 (20.0) n (%)
Grade ≥3 TEAE: Aspartate aminotransferase increased (Phase II (n = 25)): 0 n (%)
Grade ≥3 TEAE: Blood bilirubin increased (Phase II (n = 25)): 0 n (%)
Grade ≥3 TEAE: Dyspnea (Phase II (n = 25)): 0 n (%)
Grade ≥3 TEAE: Fatigue (Phase II (n = 25)): 0 n (%)
Grade ≥3 TEAE: Hyperbilirubinemia (Phase II (n = 25)): 2 (8.0) n (%)
Grade ≥3 TEAE: Hypertension (Phase II (n = 25)): 1 (4.0) n (%)
Grade ≥3 TEAE: Hypokalemia (Phase II (n = 25)): 0 n (%)
Grade ≥3 TEAE: Hypomagnesemia (Phase II (n = 25)): 0 n (%)
Grade ≥3 TEAE: Hypophosphatemia (Phase II (n = 25)): 0 n (%)
Grade ≥3 TEAE: Lymphocyte count decreased (Phase II (n = 25)): 0 n (%)
Grade ≥3 TEAE: Lymphopenia (Phase II (n = 25)): 1 (4.0) n (%)
Grade ≥3 TEAE: Muscular weakness (Phase II (n = 25)): 2 (8.0) n (%)
Grade ≥3 TEAE: Nausea (Phase II (n = 25)): 0 n (%)
Grade ≥3 TEAE: Neutropenia (Phase II (n = 25)): 4 (16.0) n (%)
Grade ≥3 TEAE: Platelet count increased (Phase II (n = 25)): 2 (8.0) n (%)
Grade ≥3 TEAE: Pleural effusion (Phase II (n = 25)): 0 n (%)
Grade ≥3 TEAE: Pneumonia (Phase II (n = 25)): 1 (4.0) n (%)
Grade ≥3 TEAE: Pneumonitis (Phase II (n = 25)): 0 n (%)
Grade ≥3 TEAE: Pyrexia (Phase II (n = 25)): 0 n (%)
Grade ≥3 TEAE: Small intestinal obstruction (Phase II (n = 25)): 0 n (%)
Grade ≥3 TEAE: Thrombocytopenia (Phase II (n = 25)): 1 (4.0) n (%)
Grade ≥3 TEAE: Vomiting (Phase II (n = 25)): 0 n (%)
Grade ≥3 TEAEs (Phase II (n = 25)): 18 (72.0) n (%)
Grade ≥3 TEAEs related to subasumstat (Phase II (n = 25)): 11 (44.0) n (%)
Grade ≥3 subasumstat-related TEAE: Anemia (Phase II (n = 25)): 3 (12.0) n (%)
Grade ≥3 subasumstat-related TEAE: Aspartate aminotransferase increased (Phase II (n = 25)): 0 n (%)
Grade ≥3 subasumstat-related TEAE: Hypokalemia (Phase II (n = 25)): 0 n (%)
Grade ≥3 subasumstat-related TEAE: Lymphocyte count decreased (Phase II (n = 25)): 0 n (%)
Grade ≥3 subasumstat-related TEAE: Muscular weakness (Phase II (n = 25)): 2 (8.0) n (%)
Grade ≥3 subasumstat-related TEAE: Neutropenia (Phase II (n = 25)): 4 (16.0) n (%)
Grade ≥3 subasumstat-related TEAE: Platelet count increased (Phase II (n = 25)): 2 (8.0) n (%)
Grade ≥3 subasumstat-related TEAE: Pneumonitis (Phase II (n = 25)): 0 n (%)
Grade ≥3 subasumstat-related TEAE: Thrombocytopenia (Phase II (n = 25)): 1 (4.0) n (%)
On-study deaths (Phase II (n = 25)): 2 (8.0) n (%)
Patients with at least one grade ≥3 TEAE (Phase II (n = 25)): 18 (72.0) n (%)
Patients with at least one grade ≥3 subasumstat-related TEAE (Phase II (n = 25)): 11 (44.0) n (%)
Serious adverse events (Phase II (n = 25)): 11 (44.0) n (%)
Serious adverse events related to subasumstat (Phase II (n = 25)): 5 (20.0) n (%)
Subasumstat-related TEAE: Anemia (Phase II (n = 25)): 4 (16.0) n (%)
Subasumstat-related TEAE: CRS (Phase II (n = 25)): 3 (12.0) n (%)
Subasumstat-related TEAE: Chills (Phase II (n = 25)): 6 (24.0) n (%)
Subasumstat-related TEAE: Decreased appetite (Phase II (n = 25)): 3 (12.0) n (%)
Subasumstat-related TEAE: Diarrhea (Phase II (n = 25)): 6 (24.0) n (%)
Subasumstat-related TEAE: Dyspnea (Phase II (n = 25)): 2 (8.0) n (%)
Subasumstat-related TEAE: Fatigue (Phase II (n = 25)): 7 (28.0) n (%)
Subasumstat-related TEAE: Headache (Phase II (n = 25)): 5 (20.0) n (%)
Subasumstat-related TEAE: Hypokalemia (Phase II (n = 25)): 0 n (%)
Subasumstat-related TEAE: IRR (Phase II (n = 25)): 1 (4.0) n (%)
Subasumstat-related TEAE: Myalgia (Phase II (n = 25)): 2 (8.0) n (%)
